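The compound was tested at five concentrations on cells cultured in 96-well plates, with a 48-hour exposure period. The concentration for 50% growth inhibition is given as GI50. TGI: total growth inhibition.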
Tests used:
Test in all cases: DTP human tumour cell line panel, 48 h
M14 melanoma = test system: M14 melanoma
PC-3 prostate = test system: PC-3 prostate
UACC-257 melanoma = test system: UACC-257 melanoma
HOP-92 NSCLC = test system: HOP-92 NSCLC
TK-10 renal = test system: TK-10 renal
NCI-H460 lung = test system: NCI-H460 lung
OVCAR-8 ovarian = test system: OVCAR-8 ovarian
HS 578T breast = test system: HS 578T breast
SNB-75 CNS = test system: SNB-75 CNS
NCI/ADR-RES ovarian = test system: NCI/ADR-RES ovarian
SF-268 CNS = test system: SF-268 CNS
NCI-H226 lung = test system: NCI-H226 lung
OVCAR-5 ovarian = test system: OVCAR-5 ovarian
RPMI-8226 leukemia = test system: RPMI-8226 leukemia
SK-MEL-5 melanoma = test system: SK-MEL-5 melanoma
RXF 393 renal = test system: RXF 393 renal
U251 CNS = test system: U251 CNS
HL-60(TB) leukemia = test system: HL-60(TB) leukemia
BT-549 breast = test system: BT-549 breast
ACHN renal = test system: ACHN renal
MALME-3M melanoma = test system: MALME-3M melanoma
UO-31 renal = test system: UO-31 renal
MDA-MB-231 breast = test system: MDA-MB-231 breast
NCI-H522 lung = test system: NCI-H522 lung
HOP-62 NSCLC = test system: HOP-62 NSCLC
IGROV1 ovarian = test system: IGROV1 ovarian
SK-MEL-2 melanoma = test system: SK-MEL-2 melanoma

CS(=O)(=O)c1nccc(-c2c(-c3cccc(OCc4ccc(Cl)c(C(F)(F)F)c4)c3)nc3sccn23)n1
GI50 (M14 melanoma): 6.93 µM | TGI (M14 melanoma): 14.1 µM | GI50 (PC-3 prostate): 1.8 µM | TGI (PC-3 prostate): 6.61 µM | GI50 (UACC-257 melanoma): 4.04 µM | TGI (UACC-257 melanoma): 10.8 µM | GI50 (HOP-92 NSCLC): 2.17 µM | TGI (HOP-92 NSCLC): 9.74 µM | GI50 (TK-10 renal): 7.99 µM | TGI (TK-10 renal): 14.9 µM | GI50 (NCI-H460 lung): 2 µM | TGI (NCI-H460 lung): 7.28 µM | GI50 (OVCAR-8 ovarian): 7.09 µM | TGI (OVCAR-8 ovarian): 13.8 µM | GI50 (HS 578T breast): 1.69 µM | TGI (HS 578T breast): 8.73 µM | GI50 (SNB-75 CNS): 6.74 µM | TGI (SNB-75 CNS): 17.9 µM | GI50 (NCI/ADR-RES ovarian): 9 µM | TGI (NCI/ADR-RES ovarian): 19.1 µM | GI50 (SF-268 CNS): 8.49 µM | TGI (SF-268 CNS): 17.6 µM | GI50 (NCI-H226 lung): 2.4 µM | TGI (NCI-H226 lung): 11.9 µM | GI50 (OVCAR-5 ovarian): 8.78 µM | TGI (OVCAR-5 ovarian): 18.8 µM | GI50 (RPMI-8226 leukemia): 1.33 µM | TGI (RPMI-8226 leukemia): 3.64 µM | GI50 (SK-MEL-5 melanoma): 7.98 µM | TGI (SK-MEL-5 melanoma): 14.9 µM | GI50 (RXF 393 renal): 4.31 µM | TGI (RXF 393 renal): 10.9 µM | GI50 (U251 CNS): 7.53 µM | TGI (U251 CNS): 14.4 µM | GI50 (HL-60(TB) leukemia): 0.997 µM | TGI (HL-60(TB) leukemia): 2.52 µM | GI50 (BT-549 breast): 1.52 µM | TGI (BT-549 breast): 5.51 µM | GI50 (ACHN renal): 5.6 µM | TGI (ACHN renal): 11.6 µM | GI50 (MALME-3M melanoma): 7.27 µM | TGI (MALME-3M melanoma): 14.6 µM | GI50 (UO-31 renal): 7.16 µM | TGI (UO-31 renal): 13.7 µM | GI50 (MDA-MB-231 breast): 1.07 µM | TGI (MDA-MB-231 breast): 2.38 µM | GI50 (NCI-H522 lung): 1.65 µM | TGI (NCI-H522 lung): 8.06 µM | GI50 (HOP-62 NSCLC): 7.26 µM | TGI (HOP-62 NSCLC): 14.1 µM | GI50 (IGROV1 ovarian): 1.64 µM | TGI (IGROV1 ovarian): 5.95 µM | GI50 (SK-MEL-2 melanoma): 3.31 µM | TGI (SK-MEL-2 melanoma): 9.61 µM
